Experiments:
[1] = molecular target: Serine/threonine-protein kinase DCLK2 (Homo sapiens) (UniProt Q8N568); assay: Inhibition of wild-type human partial length DCAMKL2 (K273 to V664 residues) expressed in bacterial expression system at 1 uM by Kinomescan method relative to control
[2] = test system: Epidermal growth factor receptor (Homo sapiens), P00533 [UNDEFINED MUTATION]; assay: Inhibition of human partial length EGFR L747-E749del/A750P mutant expressed in bacterial expression system at 1 uM by Kinomescan method relative to control
[3] = Apparent permeability from apical to basolateral side in human Caco2 cells at 5 uM after 120 mins by LC-MS/MS analysis; format: ADME, cell-based; conditions: Caco-2
[4] = molecular target: Platelet-derived growth factor receptor beta (Homo sapiens) (UniProt P09619); assay: Inhibition of wild-type human partial length PDGFRB (V582 to Y1009 residues) expressed in bacterial expression system at 1 uM by Kinomescan method relative to control
[5] = molecular target: Serine/threonine-protein kinase Sgk1 (Homo sapiens) (UniProt O00141); assay: Inhibition of wild-type human partial length SGK (I60 to L431 residues) expressed in mammalian expression system at 1 uM by Kinomescan method relative to control
[6] = molecular target: Serine/threonine-protein kinase PLK1 (Homo sapiens) (UniProt P53350); assay: Inhibition of wild-type human partial length PLK1 (A33 to F325 residues) expressed in mammalian expression system at 1 uM by Kinomescan method relative to control
[7] = molecular target: Mitogen-activated protein kinase kinase kinase 6 (Homo sapiens) (UniProt O95382); assay: Inhibition of wild-type human partial length ASK2 (M278 to R972 residues) expressed in mammalian expression system at 1 uM by Kinomescan method relative to control
[8] = molecular target: Phosphatidylinositol 5-phosphate 4-kinase type-2 beta (Homo sapiens) (UniProt P78356); assay: Inhibition of wild-type human full length PIP5K2B (M1 to T416 residues) expressed in bacterial expression system at 1 uM by Kinomescan method relative to control
[9] = molecular target: Cyclin-dependent kinase 15 (Homo sapiens) (UniProt Q96Q40); assay: Inhibition of wild-type human full length PFTAIRE2 (M1 to W384 residues) expressed in bacterial expression system at 1 uM by Kinomescan method relative to control
[10] = molecular target: Serine/threonine-protein kinase NLK (Homo sapiens) (UniProt Q9UBE8); assay: Inhibition of wild-type human full length NLK (M13 to E527 residues) expressed in bacterial expression system at 1 uM by Kinomescan method relative to control
[11] = molecular target: Bone morphogenetic protein receptor type-1A (Homo sapiens) (UniProt P36894); assay: Inhibition of wild-type human partial length BMPR1A (Q214 to I532 residues) expressed in bacterial expression system at 1 uM by Kinomescan method relative to control
[12] = molecular target: Ribosomal protein S6 kinase alpha-6 (Homo sapiens) (UniProt Q9UK32); assay: Inhibition of wild-type human partial length N-terminal RSK4 kinase domain 1 (M1 to E397 residues) expressed in mammalian expression system at 1 uM by Kinomescan method relative to control
[13] = molecular target: Serine/threonine-protein kinase Nek9 (Homo sapiens) (UniProt Q8TD19); assay: Inhibition of wild-type human partial length NEK9 (P32 to R328 residues) expressed in bacterial expression system at 1 uM by Kinomescan method relative to control
[14] = molecular target: Death-associated protein kinase 1 (Homo sapiens) (UniProt P53355); assay: Inhibition of wild-type human partial length DAPK1 (M1 to F296 residues) expressed in bacterial expression system at 1 uM by Kinomescan method relative to control
[15] = molecular target: Ephrin type-B receptor 1 (Homo sapiens) (UniProt P54762); assay: Inhibition of wild-type human partial length EPHB1 (P589 to T911 residues) expressed in bacterial expression system at 1 uM by Kinomescan method relative to control
[16] = molecular target: Tyrosine-protein kinase Blk (Homo sapiens) (UniProt P51451); assay: Inhibition of wild-type human partial length BLK (G211 to L503 residues) expressed in bacterial expression system at 1 uM by Kinomescan method relative to control
[17] = molecular target: Misshapen-like kinase 1 (Homo sapiens) (UniProt Q8N4C8); assay: Inhibition of wild-type human partial length MINK (M1 to K312 residues) expressed in mammalian expression system at 10 uM by Kinomescan method relative to control
[18] = molecular target: Receptor-type tyrosine-protein kinase FLT3 (Homo sapiens) (UniProt P36888); assay: Inhibition of wild-type human partial length FLT3 (V592 to Y969 residues) expressed in bacterial expression system at 10 uM by Kinomescan method relative to control
[19] = molecular target: cGMP-dependent protein kinase 1 (Homo sapiens) (UniProt Q13976); assay: Inhibition of wild-type human partial length PRKG1 (L339 to F686 residues) expressed in bacterial expression system at 10 uM by Kinomescan method relative to control
[20] = test system: Tyrosine-protein kinase ABL1 (Homo sapiens), P00519 [T315I]; assay: Inhibition of human phosphorylated ABL1 T315I mutant (S229 to K512 residues) expressed in mammalian expression system at 10 uM by Kinomescan method relative to control
[21] = molecular target: Casein kinase I isoform gamma-2 (Homo sapiens) (UniProt P78368); assay: Inhibition of wild-type human full length CSNK1G2 (M1 to K415 residues) expressed in bacterial expression system at 10 uM by Kinomescan method relative to control
[22] = test system: Epidermal growth factor receptor (Homo sapiens), P00533 [T790M]; assay: Inhibition of human partial length EGFR T790M mutant (R669 to G1022 residues) expressed in mammalian expression system at 10 uM by Kinomescan method relative to control
[23] = molecular target: Dual specificity mitogen-activated protein kinase kinase 6 (Homo sapiens) (UniProt P52564); assay: Inhibition of wild-type human partial length MEK6 (K36 to D334 residues) expressed in bacterial expression system at 10 uM by Kinomescan method relative to control
[24] = test system: Fibroblast growth factor receptor 3 (Homo sapiens), P22607 [G697C]; assay: Inhibition of human partial length FGFR3 G697C mutant (R442 to S771 residues) expressed in bacterial expression system at 10 uM by Kinomescan method relative to control
[25] = molecular target: Myosin light chain kinase 2, skeletal/cardiac muscle (Homo sapiens) (UniProt Q9H1R3); assay: Inhibition of wild-type human partial length MYLK2 (D258 to K570 residues) expressed in bacterial expression system at 10 uM by Kinomescan method relative to control
[26] = test system: Tyrosine-protein kinase ABL1 (Homo sapiens), P00519 [H396P]; assay: Inhibition of human non-phosphorylated ABL1 H396P mutant (S229 to K512 residues) expressed in mammalian expression system at 10 uM by Kinomescan method relative to control
[27] = molecular target: Inhibitor of nuclear factor kappa-B kinase subunit beta (Homo sapiens) (UniProt O14920); assay: Inhibition of wild-type human full length IKK-beta (M1 to S756 residues) expressed in mammalian expression system at 10 uM by Kinomescan method relative to control
Chain of Inhibitor of nuclear factor kappa-B kinase subunit beta (Homo sapiens) (O14920 whole entry, the tested form may be a part): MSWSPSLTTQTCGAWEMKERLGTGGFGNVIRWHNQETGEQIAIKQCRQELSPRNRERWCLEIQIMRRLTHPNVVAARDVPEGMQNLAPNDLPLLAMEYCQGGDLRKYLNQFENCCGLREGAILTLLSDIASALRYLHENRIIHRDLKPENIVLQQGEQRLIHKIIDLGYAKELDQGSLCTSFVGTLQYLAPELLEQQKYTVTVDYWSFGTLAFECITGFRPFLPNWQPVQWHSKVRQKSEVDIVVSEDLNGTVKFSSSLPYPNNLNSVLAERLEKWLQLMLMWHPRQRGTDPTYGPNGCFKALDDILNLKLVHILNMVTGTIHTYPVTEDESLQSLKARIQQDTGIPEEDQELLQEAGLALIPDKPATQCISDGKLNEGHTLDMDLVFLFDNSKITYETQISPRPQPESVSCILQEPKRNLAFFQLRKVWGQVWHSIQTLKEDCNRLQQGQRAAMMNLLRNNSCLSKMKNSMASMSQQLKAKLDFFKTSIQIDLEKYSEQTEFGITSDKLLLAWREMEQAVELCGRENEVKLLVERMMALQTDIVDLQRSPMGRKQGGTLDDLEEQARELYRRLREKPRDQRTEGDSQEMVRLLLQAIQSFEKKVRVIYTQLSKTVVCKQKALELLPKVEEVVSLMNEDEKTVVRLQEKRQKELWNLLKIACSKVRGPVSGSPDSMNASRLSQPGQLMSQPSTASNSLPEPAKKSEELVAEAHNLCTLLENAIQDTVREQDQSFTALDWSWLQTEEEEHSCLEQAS

Chain of Phosphatidylinositol 5-phosphate 4-kinase type-2 beta (Homo sapiens) (P78356 whole entry, the tested form may be a part): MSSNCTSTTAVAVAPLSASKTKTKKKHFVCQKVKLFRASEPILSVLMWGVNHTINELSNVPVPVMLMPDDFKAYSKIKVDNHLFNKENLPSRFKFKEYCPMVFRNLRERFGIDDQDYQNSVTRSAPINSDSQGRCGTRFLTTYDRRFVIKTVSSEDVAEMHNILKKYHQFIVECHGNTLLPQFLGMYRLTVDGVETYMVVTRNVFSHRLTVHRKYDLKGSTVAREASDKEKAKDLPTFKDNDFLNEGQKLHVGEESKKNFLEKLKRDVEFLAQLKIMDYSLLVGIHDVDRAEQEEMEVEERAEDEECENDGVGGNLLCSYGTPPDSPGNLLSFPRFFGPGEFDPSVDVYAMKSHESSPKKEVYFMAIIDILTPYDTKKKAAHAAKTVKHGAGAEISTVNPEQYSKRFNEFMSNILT
Chain of Mitogen-activated protein kinase kinase kinase 6 (Homo sapiens) (O95382 whole entry, the tested form may be a part): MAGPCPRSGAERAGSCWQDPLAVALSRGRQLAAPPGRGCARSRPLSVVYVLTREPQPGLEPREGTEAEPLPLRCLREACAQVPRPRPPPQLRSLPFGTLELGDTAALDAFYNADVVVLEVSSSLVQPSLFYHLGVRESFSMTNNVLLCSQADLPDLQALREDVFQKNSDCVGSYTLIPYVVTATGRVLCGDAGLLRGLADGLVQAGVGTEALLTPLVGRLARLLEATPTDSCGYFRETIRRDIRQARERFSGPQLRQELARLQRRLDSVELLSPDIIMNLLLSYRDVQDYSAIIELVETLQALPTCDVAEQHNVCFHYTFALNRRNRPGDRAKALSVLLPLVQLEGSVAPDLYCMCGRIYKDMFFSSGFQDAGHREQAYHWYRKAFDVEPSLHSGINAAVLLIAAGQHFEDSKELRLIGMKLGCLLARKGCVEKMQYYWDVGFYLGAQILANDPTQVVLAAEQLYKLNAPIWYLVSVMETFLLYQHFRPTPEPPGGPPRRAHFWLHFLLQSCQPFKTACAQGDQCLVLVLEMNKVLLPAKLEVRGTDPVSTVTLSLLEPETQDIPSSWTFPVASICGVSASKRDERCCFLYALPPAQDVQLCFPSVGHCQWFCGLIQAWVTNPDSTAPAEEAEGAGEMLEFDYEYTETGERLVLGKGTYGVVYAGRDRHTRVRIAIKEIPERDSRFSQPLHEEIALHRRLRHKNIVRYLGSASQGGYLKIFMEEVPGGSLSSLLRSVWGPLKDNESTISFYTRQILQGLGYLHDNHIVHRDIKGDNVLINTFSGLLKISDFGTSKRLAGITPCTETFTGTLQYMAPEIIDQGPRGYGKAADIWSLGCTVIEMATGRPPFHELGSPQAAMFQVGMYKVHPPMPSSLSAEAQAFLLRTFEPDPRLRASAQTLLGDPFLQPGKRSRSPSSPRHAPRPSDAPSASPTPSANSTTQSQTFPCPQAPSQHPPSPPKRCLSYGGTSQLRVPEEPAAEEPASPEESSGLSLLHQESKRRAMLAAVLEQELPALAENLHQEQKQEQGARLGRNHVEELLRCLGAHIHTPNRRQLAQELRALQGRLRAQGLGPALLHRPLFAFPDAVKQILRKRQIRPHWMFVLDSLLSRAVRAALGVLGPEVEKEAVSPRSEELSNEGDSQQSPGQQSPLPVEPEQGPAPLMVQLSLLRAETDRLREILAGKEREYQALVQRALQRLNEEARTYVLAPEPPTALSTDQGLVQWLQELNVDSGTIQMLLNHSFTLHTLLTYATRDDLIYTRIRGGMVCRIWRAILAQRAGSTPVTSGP
Chain of Serine/threonine-protein kinase Sgk1 (Homo sapiens) (O00141 whole entry, the tested form may be a part): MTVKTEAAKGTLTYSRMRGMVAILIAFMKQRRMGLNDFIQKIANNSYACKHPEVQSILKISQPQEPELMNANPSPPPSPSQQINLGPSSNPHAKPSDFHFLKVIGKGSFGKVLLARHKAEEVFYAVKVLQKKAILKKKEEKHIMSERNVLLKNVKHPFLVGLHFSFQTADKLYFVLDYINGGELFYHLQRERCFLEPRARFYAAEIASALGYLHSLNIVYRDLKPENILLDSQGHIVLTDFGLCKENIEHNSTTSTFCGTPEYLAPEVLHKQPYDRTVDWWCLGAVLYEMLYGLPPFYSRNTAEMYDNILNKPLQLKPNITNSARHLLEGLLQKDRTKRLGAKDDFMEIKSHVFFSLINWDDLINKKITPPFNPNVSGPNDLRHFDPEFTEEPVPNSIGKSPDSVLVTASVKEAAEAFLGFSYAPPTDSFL
Chain of cGMP-dependent protein kinase 1 (Homo sapiens) (Q13976 whole entry, the tested form may be a part): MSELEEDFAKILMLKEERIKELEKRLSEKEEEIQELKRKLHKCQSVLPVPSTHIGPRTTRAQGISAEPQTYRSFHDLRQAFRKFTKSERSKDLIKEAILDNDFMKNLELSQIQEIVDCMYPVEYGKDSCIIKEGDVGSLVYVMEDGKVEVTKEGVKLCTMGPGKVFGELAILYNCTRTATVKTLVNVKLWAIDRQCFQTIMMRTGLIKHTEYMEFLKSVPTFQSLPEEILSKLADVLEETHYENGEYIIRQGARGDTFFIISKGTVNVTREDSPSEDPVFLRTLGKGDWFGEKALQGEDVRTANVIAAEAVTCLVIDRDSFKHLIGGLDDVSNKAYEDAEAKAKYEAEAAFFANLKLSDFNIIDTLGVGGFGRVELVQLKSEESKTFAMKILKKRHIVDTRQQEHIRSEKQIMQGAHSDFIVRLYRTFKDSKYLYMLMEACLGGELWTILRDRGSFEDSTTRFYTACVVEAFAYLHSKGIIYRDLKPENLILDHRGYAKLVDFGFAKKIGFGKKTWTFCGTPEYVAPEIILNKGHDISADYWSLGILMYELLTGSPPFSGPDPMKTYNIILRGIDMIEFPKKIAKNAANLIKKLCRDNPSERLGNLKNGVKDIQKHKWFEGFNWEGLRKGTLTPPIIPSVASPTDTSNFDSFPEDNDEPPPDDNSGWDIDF
Chain of Serine/threonine-protein kinase Nek9 (Homo sapiens) (Q8TD19 whole entry, the tested form may be a part): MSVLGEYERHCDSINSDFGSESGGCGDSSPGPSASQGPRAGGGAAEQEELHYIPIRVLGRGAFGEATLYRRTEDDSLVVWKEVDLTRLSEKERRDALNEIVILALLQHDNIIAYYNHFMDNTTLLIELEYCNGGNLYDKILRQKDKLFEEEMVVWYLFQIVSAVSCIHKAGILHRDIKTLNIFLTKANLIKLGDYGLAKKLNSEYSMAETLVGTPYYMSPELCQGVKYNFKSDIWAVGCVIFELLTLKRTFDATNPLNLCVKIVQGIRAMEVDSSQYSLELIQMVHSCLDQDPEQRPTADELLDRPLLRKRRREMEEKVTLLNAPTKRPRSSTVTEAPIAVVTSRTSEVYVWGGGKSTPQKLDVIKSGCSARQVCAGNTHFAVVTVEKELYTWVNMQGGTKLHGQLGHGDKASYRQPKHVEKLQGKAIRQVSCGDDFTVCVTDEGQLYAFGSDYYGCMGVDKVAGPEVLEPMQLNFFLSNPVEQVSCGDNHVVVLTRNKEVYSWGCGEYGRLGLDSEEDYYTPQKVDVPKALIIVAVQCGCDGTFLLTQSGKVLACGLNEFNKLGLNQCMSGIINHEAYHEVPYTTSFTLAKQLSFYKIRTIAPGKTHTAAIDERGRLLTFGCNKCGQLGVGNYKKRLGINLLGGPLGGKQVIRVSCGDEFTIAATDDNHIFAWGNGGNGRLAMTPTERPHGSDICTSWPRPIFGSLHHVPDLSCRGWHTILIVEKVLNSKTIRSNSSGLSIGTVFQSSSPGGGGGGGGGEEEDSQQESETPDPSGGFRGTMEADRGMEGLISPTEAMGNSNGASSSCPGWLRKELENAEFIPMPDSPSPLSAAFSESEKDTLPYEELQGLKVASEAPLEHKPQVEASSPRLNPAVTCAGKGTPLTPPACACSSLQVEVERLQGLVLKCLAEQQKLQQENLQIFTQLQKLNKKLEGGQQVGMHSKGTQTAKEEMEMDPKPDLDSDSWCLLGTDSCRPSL
Chain of Dual specificity mitogen-activated protein kinase kinase 6 (Homo sapiens) (P52564 whole entry, the tested form may be a part): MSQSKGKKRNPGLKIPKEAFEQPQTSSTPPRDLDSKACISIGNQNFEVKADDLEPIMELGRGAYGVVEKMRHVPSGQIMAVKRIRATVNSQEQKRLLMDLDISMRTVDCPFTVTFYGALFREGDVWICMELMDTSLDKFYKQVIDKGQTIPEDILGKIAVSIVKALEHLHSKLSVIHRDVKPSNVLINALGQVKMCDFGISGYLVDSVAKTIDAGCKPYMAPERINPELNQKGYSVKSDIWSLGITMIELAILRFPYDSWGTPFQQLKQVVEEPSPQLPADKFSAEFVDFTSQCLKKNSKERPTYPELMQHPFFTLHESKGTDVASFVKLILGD

O=C(Nc1cccc([C@@H]2CN(c3ncnc4[nH]ccc34)CCN2CCO)c1)Nc1c(F)cccc1N1CCCC1
inhibition [1]: 99%
inhibition [2]: 87%
Papp A→B at 2 h, 5 µM [3]: 40 nm/s
inhibition [4]: 42%
inhibition [5]: 64%
inhibition [6]: 86%
inhibition [7]: 81%
inhibition [8]: 96%
inhibition [9]: 91%
inhibition [10]: 100%
inhibition [11]: 100%
inhibition [12]: 89%
inhibition [13]: 95%
inhibition [14]: 5.3%
inhibition [15]: 97%
inhibition [16]: 20%

O=C(Nc1cccc([C@H]2CCCN(c3ncnc4[nH]ccc34)C2)c1)Nc1ccccc1N1CCCC1
inhibition [17]: 37%
inhibition [18]: 7.2%
inhibition [19]: 44%
inhibition [20]: 56%
inhibition [21]: 100%
inhibition [22]: 66%
inhibition [23]: 86%
inhibition [24]: 53%
inhibition [25]: 58%
inhibition [26]: 12%
inhibition [27]: 25%

From ChEMBL document CHEMBL4387741, “Optimization of novel reversible Bruton's tyrosine kinase inhibitors identified using Tethering-fragment-based screens” (Bioorg Med Chem, 2019)
